{"source": "patent US12157730B2", "about": "“Heteroaryl derivative, method for producing same, and pharmaceutical composition comprising same as effective component” (VORONOI INC., priority 2019, dated 2024)", "data": [{"target": "T1, Ba/F3 cell EGFR Exon20 ins NPH (Homo sapiens, UniProt P00533, INS773NPH)", "T1 construct": "expressed in transfected cells; host or cells: Ba/F3", "assay": "Ba/F3 cell proliferation suppression, EGFR Exon20 ins NPH", "format": "cell-based", "details": "GI50 class; Ba/F3 cell line with NPH inserted at Exon20 of EGFR; 72 hours", "summary_of_the_method": "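Seed 3000–5000 cells/well; after 24 h add compound (12 conc., 0.3 nM–50 um final); incubate 72 h; add CellTiter-Glo, 10 min room temperature; read luminescence; GI50 from % growth vs control, triplicate.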", "values": [{"compound": "C=CC(=O)Nc1cc(Nc2cc(N3OCC[C@@H]3c3cccc(C)c3F)ncn2)c(OC)cc1N1CCC(N2C[C@H]3C[C@@H]2CO3)CC1", "note": "[compound 320, N-(2-(4-((1R,4R)-2-oxa-5-azabicyclo[2.2.1]heptane-5-yl)piperidine-1-yl)-5-((6-((R)-3-(2-fluoro-3-methylphenyl)isoxazolidine-2-yl)pyrimidine-4-yl)amino)-4-methoxyphenyl) acrylamide]", "Ba/F3 (NPH) Activity": "A (GI50 < 50 nM)"}, {"compound": "C=CC(=O)Nc1cc(Nc2cc(N3OCC[C@@H]3c3cccc(C(F)(F)F)c3)ncn2)c(OC)cc1N1CCN(CC)CC1", "note": "[compound 452, N-(2-(4-ethylpiperazine-1-yl)-4-methoxy-5-((6-((R)-3-(3-(trifluoromethyl)phenyl)isoxazolidine-2-yl)pyrimidine-4-yl)amino)phenyl) acrylamide]", "Ba/F3 (NPH) Activity": "A (GI50 < 50 nM)"}, {"compound": "C=CC(=O)Nc1cc(Nc2cc(N3OCC[C@@H]3c3ccc(C)nc3)ncn2)c(OC)cc1N1CCC(N2CC[C@@H](N(C)C)C2)CC1", "note": "[Example 231, N-(2-(4-((R)-3-(dimethylamino)pyrolidine-1-yl)piperidine-1-yl)-4-methoxy-5-((6-((R)-3-(6-methylpyridine-3-yl)isoxazolidine-2-yl)pyrimidine-4-yl)amino)phenyl)acrylamide]", "Ba/F3 (NPH) Activity": "B (50 nM ≤ GI50 < 500 nM)"}, {"compound": "C=CC(=O)Nc1cc(Nc2cc(N3OCC[C@@H]3c3cc(F)ccc3F)ncn2)c(OC)cc1N1CCC(N2CCO[C@H](C)C2)CC1", "note": "[compound 822, N-(5-((6-((R)-3-(2,5-difluorophenyl)isoxazolidine-2-yl)pyrimidine-4-yl)amino)-4-methoxy-2-(4-((R)-2-methylmorpholino)piperidine-1-yl)phenyl) acrylamide]", "Ba/F3 (NPH) Activity": "A (GI50 < 50 nM)"}, {"compound": "C=CC(=O)Nc1cc(Nc2cc(N3OCC[C@@H]3Cc3ccccc3)ncn2)c(OC)cc1N1CCC(N(C)C)CC1", "note": "[compound 951, N-(5-((6-((S)-3-benzylisoxazolidine-2-yl)pyrimidine-4-yl)amino)-2-(4-(dimethylamino)piperidine-1-yl)-4-methoxyphenyl) acrylamide]", "Ba/F3 (NPH) Activity": "A (GI50 < 50 nM)"}, {"compound": "C=CC(=O)Nc1cc(Nc2cc(N3OCC[C@@H]3Cc3ccccc3)ncn2)c(OC)cc1N1C[C@H]2C[C@@H]1CO2", "note": "[compound 957, N-(5-((6-((S)-3-benzylisoxazolidine-2-yl)pyrimidine-4-yl)amino)-2-((1R,4R)-2-oxa-5-azabicyclo [2.2.1]heptane-5-yl)-4-methoxyphenyl) acrylamide]", "Ba/F3 (NPH) Activity": "A (GI50 < 50 nM)"}, {"compound": "C=CC(=O)Nc1cc(Nc2cc(N3OCC[C@@H]3c3ccc(F)cc3)ncn2)c(OC)cc1N(C)CCN(C)C", "note": "[Example 39, N-(2-((2-(dimethylamino)ethyl)(methyl)amino)-5-((6-((R)-3-(4-fluorophenyl)isoxazolidine-2-yl)pyrimidine-4-yl)amino)-4-methoxyphenyl) acrylamide]", "Ba/F3 (NPH) Activity": "A (GI50 < 50 nM)"}, {"compound": "C=CC(=O)Nc1cc(Nc2cc(N3OCC[C@@H]3c3ccccc3)ncn2)c(OC)cc1N1CCC(N2CC[C@H](N(C)C)C2)CC1", "note": "[Example 286, N-(2-(4-((S)-3-(dimethylamino)pyrolidine-1-yl)piperidine-1-yl)-4-methoxy-5-((6-((R)-3-phenylisoxazolidine-2-yl)pyrimidine-4-yl)amino)phenyl) acrylamide]", "Ba/F3 (NPH) Activity": "A (GI50 < 50 nM)"}, {"compound": "C=CC(=O)Nc1cc(Nc2cc(N3OCC[C@@H]3c3cc(F)cc(Cl)c3)ncn2)c(OC)cc1N1CCC(N2C[C@@H]3C[C@H]2CO3)CC1", "note": "[compound 592, N-(2-(4-((1S,4S)-2-oxa-5-azabicyclo[2.2.1]heptane-5-yl)piperidine-1-yl)-5-((6-((R)-3-(3-chloro-5-fluorophenyl)isoxazolidine-2-yl)pyrimidine-4-yl)amino)-4-methoxyphenyl) acrylamide]", "Ba/F3 (NPH) Activity": "A (GI50 < 50 nM)"}, {"compound": "C=CC(=O)Nc1cc(Nc2cc(N3OCC[C@@H]3Cc3cccc(Cl)c3C)ncn2)c(OC)cc1N1CCC(N2CCN(C3CC3)CC2)CC1", "note": "[compound 1025, N-(5-((6-((S)-3-(3-chloro-2-methylbenzyl)isoxazolidine-2-yl)pyrimidine-4-yl)amino)-2-(4-(4-cyclopropylpiperazine-1-yl)piperidine-1-yl)-4-methoxyphenyl) acrylamide]", "Ba/F3 (NPH) Activity": "A (GI50 < 50 nM)"}, {"compound": "C=CC(=O)Nc1cc(Nc2cc(N3OCC[C@@H]3c3cccc4ccccc34)ncn2)c(OC)cc1N1CCC(N2CCN(C(C)C)CC2)CC1", "note": "[compound 490, N-(2-(4-(4-isopropylpiperazine-1-yl)piperidine-1-yl)-4-methoxy-5-((6-((R)-3-(naphthalene-1-yl)isoxazolidine-2-yl)pyrimidine-4-yl)amino)phenyl)acrylamide]", "Ba/F3 (NPH) Activity": "A (GI50 < 50 nM)"}, {"compound": "N-(2-(4-(4- (cyclopropylmethyl) piperazine-1-yl) piperidine-1-yl)-5-((6- ((S)-3-(2,6)- difluorophenyl) isoxazolidine-2-yl) pyrimidine-4-yl)amino)- 4-methoxyphenyl) acrylamide [Example 95]", "Ba/F3 (NPH) Activity": "C (500 nM ≤ GI50 < 5000 nM)"}, {"compound": "C=CC(=O)Nc1cc(Nc2cc(N3OCC[C@@H]3c3cccc(F)c3)ncn2)c(OC)cc1N1CC[C@@H](N2CCOCC2)C1", "note": "[compound 323, N-(5-((6-((R)-3-(3-fluorophenyl)isoxazolidine-2-yl)pyrimidine-4-yl)amino)-4-methoxy-2-((R)-3-morpholinopyrolidine-1-yl)phenyl) acrylamide]", "Ba/F3 (NPH) Activity": "A (GI50 < 50 nM)"}, {"compound": "C=CC(=O)Nc1cc(Nc2cc(N3OCC[C@@H]3c3cccc(F)c3)ncn2)c(OC)cc1N1CCC(N2C[C@@H]3C[C@H]2CN3C)CC1", "note": "[compound 837, N-(5-((6-((R)-3-(3-fluorophenyl)isoxazolidine-2-yl)pyrimidine-4-yl)amino)-4-methoxy-2-(4-((1S, 4S)-5-methyl-2,5-diazabicyclo[2.2.1]heptane-2-yl)piperidine-1-yl)phenyl)acrylamide]", "Ba/F3 (NPH) Activity": "A (GI50 < 50 nM)"}, {"compound": "C=CC(=O)Nc1cc(Nc2cc(N3OCC[C@@H]3c3cccc(OC)c3)ncn2)c(OC)cc1N1CCC(N2CCC(N(C)C)CC2)CC1", "note": "[compound 781, N-(2-(4-(dimethylamino)-[1,4'-bipiperidine]-1'-yl)-4-methoxy-5-((6-((R)-3-(3-methoxyphenyl)isoxazolidine-2-yl)pyrimidine-4-yl)amino)phenyl)acrylamide]", "Ba/F3 (NPH) Activity": "B (50 nM ≤ GI50 < 500 nM)"}, {"compound": "C=CC(=O)Nc1cc(Nc2cc(N3OCC[C@@H]3Cc3cccc(F)c3)ncn2)c(OC)cc1N1CCC(N2C[C@H]3CC[C@@H](C2)N3C2CC2)CC1", "note": "[compound 995, N-(2-(4-((1R,5S)-8-cyclopropyl-3,8-diazabicyclo [3.2.1]octan-3-yl)piperidine-1-yl)-5-((6-((S)-3-(3-fluorobenzyl)isoxazolidine-2-yl)pyrimidine-4-yl)amino)-4-methoxyphenyl) acrylamide]", "Ba/F3 (NPH) Activity": "A (GI50 < 50 nM)"}, {"compound": "C=CC(=O)Nc1cc(Nc2cc(N3OCC[C@@H]3Cc3cccc(F)c3)ncn2)c(OC)cc1N1CCN(C)CC1", "note": "[compound 991, N-(5-((6-((S)-3-(3-fluorobenzyl)isoxazolidine-2-yl)pyrimidine-4-yl)amino)-4-methoxy-2-(4-methylpiperazine-1-yl)phenyl)acrylamide]", "Ba/F3 (NPH) Activity": "A (GI50 < 50 nM)"}, {"compound": "C=CC(=O)Nc1cc(Nc2cc(N3OCC[C@@H]3c3cc(F)cc(Cl)c3)ncn2)c(OC)cc1N1CCC(N2CCO[C@@H](C)C2)CC1", "note": "[compound 595, N-(5-((6-((R)-3-(3-chloro-5-fluorophenyl)isoxazolidine-2-yl)pyrimidine-4-yl)amino)-4-methoxy-2-(4-((S)-2-methylmorpholino)piperidine-1-yl)phenyl) acrylamide]", "Ba/F3 (NPH) Activity": "A (GI50 < 50 nM)"}, {"compound": "C=CC(=O)Nc1cc(Nc2cc(N3OCC[C@@H]3c3cccc(C#N)c3)ncn2)c(OC)cc1N1CCC(N2CC3CCC(C2)N3C2CC2)CC1", "note": "[Example 133, N-(5-((6-((R)-3-(3-cyanophenyl)isoxazolidine-2-yl)pyrimidine-4-yl)amino)-2-(4-(8-cyclopropyl-3,8-diazabicyclo[3.2.1]octan-3-yl)piperidine-1-yl)-4-methoxyphenyl) acrylamide]", "Ba/F3 (NPH) Activity": "B (50 nM ≤ GI50 < 500 nM)"}, {"compound": "C=CC(=O)Nc1cc(Nc2cc(N3OCC[C@@H]3c3ccc(Cl)cc3)ncn2)c(OC)cc1N1CCC(N2CCOCC2)CC1", "note": "[compound 782, N-(5-((6-((R)-3-(4-chlorophenyl)isoxazolidine-2-yl)pyrimidine-4-yl)amino)-4-methoxy-2-(4-morpholinopiperidine-1-yl)phenyl)acrylamide]", "Ba/F3 (NPH) Activity": "A (GI50 < 50 nM)"}, {"compound": "C=CC(=O)Nc1cc(Nc2cc(N3OCC[C@@H]3c3ccc(F)c(Cl)c3)ncn2)c(OC)cc1N1CC[C@H](N(C)C)C1", "note": "[compound 906, N-(5-((6-((R)-3-(3-chloro-4-fluorophenyl)isoxazolidine-2-yl)pyrimidine-4-yl)amino)-2-((S)-3-(dimethylamino)pyrolidine-1-yl)-4-methoxyphenyl) acrylamide]", "Ba/F3 (NPH) Activity": "A (GI50 < 50 nM)"}, {"compound": "C=CC(=O)Nc1cc(Nc2cc(N3OCC[C@@H]3c3cccs3)ncn2)c(OC)cc1N1CCC(N2CCN(C3CC3)CC2)CC1", "note": "[Example 147, N-(2-(4-(4-cyclopropylpiperazine-1-yl)piperidine-1-yl)-4-methoxy-5-((6-((R)-3-(thiophene-2-yl)isoxazolidine-2-yl)pyrimidine-4-yl)amino)phenyl)acrylamide]", "Ba/F3 (NPH) Activity": "A (GI50 < 50 nM)"}, {"compound": "C=CC(=O)Nc1cc(Nc2cc(N3OCC[C@@H]3c3ccc(F)c(Cl)c3)ncn2)c(OC)cc1N1C[C@H]2C[C@@H]1CO2", "note": "[compound 903, N-(2-((1R,4R)-2-oxa-5-azabicyclo [2.2.1]heptane-5-yl)-5-((6-((R)-3-(3-chloro-4-fluorophenyl)isoxazolidine-2-yl)pyrimidine-4-yl)amino)-4-methoxyphenyl) acrylamide]", "Ba/F3 (NPH) Activity": "A (GI50 < 50 nM)"}]}]}
